Test results as given in patent publication US20100120740A1, “PRODRUGS OF FUSED HETEROCYCLIC INHIBITORS OF D-AMINO ACID OXIDASE” (SEPRACOR INC., priority 2008, published 2010).

Experiment: Rate of hydrolysis of test compounds to 4H-furo[3,2-b]pyrrole-5-carboxylic acid in pH 7.4 and 2.0 aqueous solutions
Type: physicochemical
Details: HPLC; for Hydrolysis rate at pH 7.4: 0.05 M sodium phosphate buffer pH 7.4, 0.013 mg/mL, over 6 hours; for Hydrolysis rate at pH 2.0: water adjusted with phosphoric acid to pH 2.0, 0.013 mg/mL, over 2 hours
Method: 10 mM DMSO solutions of test compounds were diluted with a 0.05 M sodium phosphate buffer (pH 7.4) or water adjusted with phosphoric acid to pH 2.0, with a final concentration of 0.013 mg/mL. Samples were analyzed over either 2 or 6 hours, by HPLC. The amount of test compound and the corresponding acid were determined. The rate of conversion of the test compound was calculated based on formation of the corresponding acid and loss of parent.
The rate of hydrolysis of test compounds to 4H-furo[3,2-b]pyrrole-5-carboxylic acid was evaluated in pH 7.4 aqueous solution over 6 hours, and in pH 2.0 aqueous solution over 2 hours, according to General Procedure 15.

O=C(OCCN1CCOCC1)c1cc2occc2[nH]1 [Compound 24, 2-morpholinoethyl 4H-furo[3,2-b]pyrrole-5-carboxylate]
Hydrolysis rate at pH 7.4: No hydrolysis
Hydrolysis rate at pH 2.0: No hydrolysis

O=C(OCC(=O)N1CCC1)c1cc2occc2[nH]1 [Compound 22a, 2-(azetidin-1-yl)-2-oxoethyl 4H-furo[3,2-b]pyrrole-5-carboxylate]
Hydrolysis rate at pH 7.4: No hydrolysis
Hydrolysis rate at pH 2.0: No hydrolysis

CC(OC(=O)OC1CCCCC1)OC(=O)c1cc2occc2[nH]1 (centres unmarked) [Compound 36b, 1-(cyclohexyloxycarbonyloxy)ethyl 4H-furo[3,2-b]pyrrole-5-carboxylate]
Hydrolysis rate at pH 7.4: 0.21%/hr

CC(OC(=O)c1cc2occc2[nH]1)OC(=O)C(C)C (centres unmarked) [Compound 31b, 1-(isobutyryloxy)ethyl 4H-furo[3,2-b]pyrrole-5-carboxylate]
Hydrolysis rate at pH 7.4: 3.46%/hr

O=C(OCC1CCCO1)c1cc2occc2[nH]1 (centres unmarked) [Compound 11, (tetrahydrofuran-2-yl)methyl 4H-furo[3,2-b]pyrrole-5-carboxylate]
Hydrolysis rate at pH 7.4: No hydrolysis
Hydrolysis rate at pH 2.0: No hydrolysis

Cc1oc(=O)oc1COC(=O)c1cc2occc2[nH]1 [Compound 12, (5-methyl-2-oxo-1,3-dioxol-4-yl)methyl 4H-furo[3,2-b]pyrrole-5-carboxylate]
Hydrolysis rate at pH 7.4: 0.20%/hr
Hydrolysis rate at pH 2.0: No hydrolysis

CN(C)C(=O)COC(=O)c1cc2occc2[nH]1 [Compound 20, 2-(dimethylamino)-2-oxoethyl 4H-furo[3,2-b]pyrrole-5-carboxylate]
Hydrolysis rate at pH 7.4: No hydrolysis
Hydrolysis rate at pH 2.0: No hydrolysis

O=C(OCC(=O)N1CCOCC1)c1cc2occc2[nH]1 [Compound 21a, 2-morpholino-2-oxoethyl 4H-furo[3,2-b]pyrrole-5-carboxylate]
Hydrolysis rate at pH 7.4: No hydrolysis
Hydrolysis rate at pH 2.0: No hydrolysis
